Experimental data as given in a melting point compilation (Tetko et al.; mined from patent text by program, amines drawn as free bases though some values may be those of a salt).

Row | SMILES | melting point [°C]
1 | O=c1[nH]c2ccccc2c(=O)n1Cc1ccc(Cl)c(Cl)c1 | 274 to 275
2 | CCCC1NC(C(=O)O)Cc2c1[nH]c1ccccc21 (stereo not given) | 210 to 211
3 | O=C(N[C@H]1CC[C@H](CCN2CCC(c3cccc4c3CCO4)CC2)CC1)c1ccc(-c2ccccc2)cc1 | 241
4 | CC(C)(C)[C@H]1CC[C@@H](Nc2nnc(CCc3cccnc3)c3ccccc23)CC1 | 155 to 157
5 | CCCCCCNC(=O)[C@H](C)C[C@H](O)[C@H](CC1CCCCC1)NC(=O)[C@H](Cc1cscn1)NC(=O)OC(C)(C)C | 156 to 158
6 | CC(=O)c1c(C)[nH]c(CCN)c1C | 106 to 108
7 | CC(Oc1cc(F)cc(F)c1)C1=NCCN1 (stereo not given) | 134
8 | N#C[C@@H](NCc1ccccc1)[C@@H]1CSC(=O)N1Cc1ccccc1 | 131 to 132
9 | CC(C)(C)OC(=O)Cn1c(C(=O)O)cc2cc(NC(=O)OC(C)(C)C)ccc21 | > 300
10 | CCCN(C(N)=S)C(c1ccncc1)C1CC1 (stereo not given) | 171
11 | O=[N+]([O-])c1ccccc1Nc1nc(-c2ccccc2)cs1 | 114 to 116
12 | CC(=O)NCCCNC(=O)c1cc2c(ccc3cnn(C[C@H](C)N)c32)o1 | 81
13 | COc1cc(C(C)C)c(Oc2cnc(NC(=O)CNC3CCCC3)nc2N)cc1I | 176 to 178
14 | CCC(O)(CC)CC/C=C(\C)c1ccc(COc2ccc(CO)c(CO)c2)s1 | 100 to 102
15 | CCCc1c(C(=O)C(C)C)c2ccc(NC=O)cc2n1Cc1ccccc1Cl | 113 to 115
16 | CCOC(=O)c1cc2c3n(ccc-2n1)CC(CO)=N3 | 227 to 229
17 | CCCNc1nc(N)cc(Cl)n1 | 92 to 94
18 | O=C(NC[C@@H]1CN2C(=O)C[C@H]2O1)c1cc(F)c(F)cc1F (racemic) | 76.5 to 78.1
19 | O=C1Nc2ccc(Br)cc2C1c1ncnc2nn(C3CCCCC3)cc12 (stereo not given) | 285 to 290
20 | Cc1ccc2c3c(ccc2n1)OC[C@H](CN1CCCN(c2ccc4cc(C#N)ccc4n2)CC1)O3 | 80 to 85
21 | CCC[C@H](C)C(=O)O[C@H]1CCC=C2C=C[C@H](C)[C@H](CC[C@@H]3C[C@@H](O)CC(=O)O3)[C@H]21 | 110 to 112

Row | SMILES | melting point [°C]
22 | CCCc1nc(C#N)c(C#N)nc1Oc1ccccc1 | 130 to 132
23 | CCOC(=O)N1CCC(=C2c3ccccc3C=Cc3ccccc32)CC1 | 123 to 124
24 | CS(=O)(=O)N1CCCn2c(nc3c(N)nc4cc(-c5cccnc5)ccc4c32)C1 | 302
25 | CCCCCCCCc1ncc(-c2ccc(O)cc2)cn1 | 94 to 96
26 | COc1ccc(C2NCCS2)cc1OC (stereo not given) | 54 to 56
27 | CCCc1c(OCCCOc2cccc3c2CCCC3)ccc2c1OC(CCCC(O)CO)(CCCC(O)CO)CC2=O (stereo not given) | 87 to 88
28 | C=CCN1CCc2cc(OC[C@H]3CO[C@](Cn4ccnc4)(c4ccc(Cl)cc4Cl)O3)ccc2C1 (racemic) | 94 to 95
29 | CCNc1nc(Nc2ccccc2)ncc1CO | 174 to 176
30 | CC1CC2C3CCC4=CC(=O)C=CC4(C)C3C(O)CC2(C)C1C(=O)CI (stereo not given) | 153
31 | Cc1cc2nc(NC(=O)C(C)(C)C)nc(Cl)c2[nH]1 | 162 to 163
32 | CSc1cc(C(=O)O)ccc1C | 175
33 | Cc1[nH]cc2c(=O)n(-c3ccc(Cl)cc3)nc-2c1-c1ccc(N2CCOCC2)cc1 | 306 to 315
34 | Cc1nc(SCc2cc(O)nc(O)n2)sc1CC(=O)O | 246 to 247
35 | Cc1ccc(NC2CCOC2=O)c(C(=O)O)c1 (stereo not given) | 199 to 200
36 | CCOC(=O)COc1ccc(C(=O)c2c(Br)cnn2CC)c(Cl)c1Cl | 90 to 91
37 | CCN(c1ccc(C)c2cc(-c3ncc(CN4CCN(C(C)=O)CC4)s3)[nH]c12)S(=O)(=O)c1cccs1 | 157 to 158
38 | CC1(C)C(=O)Nc2cc(C(=O)CBr)ccc21 | 230 to 232
39 | CN(C(=O)C1(CCCCCCCCCCCCC2(C(=O)O)CC2)CC1)S(C)(=O)=O | 62.9 to 63.7
40 | CN(C)c1nc(N)nc(-c2cc(Cl)ccc2Cl)n1 | 178 to 179
41 | C/C(=C\c1ccc(C(=O)O)cc1)c1ccc(O)c(C(C)(C)C)c1 | 209
42 | Cc1cn(Cc2ccc(N)cc2)cn1 | 141 to 142

Row | SMILES | melting point [°C]
43 | CCN(CC)C(=O)Cc1c(-c2ccc(O)cc2)nn2c(C)cc(C)nc12 | 242 to 247
44 | O=C1CCC(N2Cc3c(OCc4ccc(CN5CCOCC5)cc4)cccc3C2=O)C(=O)N1 (stereo not given) | 206 to 208
45 | Cc1ccc([N+](=O)[O-])c2c1CCN2 | 125 to 127
46 | c1cnc2scc(Nc3ccncc3)c2c1 | 200 to 204
47 | CN1CC(c2cc3ccccc3o2)CC1=O (stereo not given) | 73
48 | COCCN1CCN(c2ccc(N3C[C@H](CNC(C)=O)OC3=O)cc2F)CC1 | 144 to 146
49 | O=c1[nH]c2ccc(O)cc2c(=O)n1CCN1CCC(c2c[nH]c3ccccc23)CC1 | 258
50 | CCC(NC(=O)OC)c1ccc(Cl)c2nc3n(c12)CCCN3c1ccc(Cl)cc1Cl (stereo not given) | 201 to 203
51 | CCc1nn(-c2ccc(F)cc2)c2cc(Br)ccc12 | 72 to 73
52 | Cc1c(Br)csc1C(=O)O | 188 to 189
53 | Fc1ccc(-c2nc(=S)n(Cc3ccccc3)[nH]2)c(Cl)c1 | 135 to 136
54 | COC(=O)COc1cccc2c1c(C(=O)C(N)=O)c(C)n2Cc1cccc2ccccc12 | 188 to 190
55 | OC1CSC(Oc2cc(-c3cccnc3)ccc2F)C(O)C1O (stereo not given) | 100
56 | CN1CCC(c2c[nH]c3ccc(CCS(=O)(=O)N(C)C)cc23)CC1 | 170 to 172
57 | O=C(O)c1cnncc1C(F)(F)F | 150 to 151
58 | COc1cc2c(Nc3ccc(Cl)cc3F)ncnc2cc1OCc1ccnc(C#N)c1 | 209 to 213
59 | CC(C)n1nc2ccc(Cl)c([N+](=O)[O-])c2n1 | 67 to 70
60 | Cc1c(Cc2cccc(C(F)(F)F)c2)oc2cccc(-c3cccc(C(=O)NCCC#N)c3)c12 | 108 to 109
61 | O=C(N(Cc1cccs1)CC1CCCCC1)C12CC3CC(CC(C3)C1)C2 | 112 to 116
62 | CCOc1ccc2[nH]c(=O)n(C3Cc4ccccc4C3)c2c1 | 151
63 | CCCCCC(=O)NCCCSc1ccncc1 | 48 to 49

More lines, now with the values ahead:

Row | melting point [°C] | SMILES
64 | 112 to 114 | C#CCOC(=O)Oc1ccc(S(=O)(=O)c2ccc(OC(=O)OCC#C)cc2)cc1
65 | 108 | CCOC(=O)CC(C(=O)c1ccc(Cl)cc1)C(=O)c1ccc(Cl)cc1
66 | 201 to 203 | O=C(NCC(=O)N1c2ccccc2N(Cc2ccccc2)C(=O)[C@H]2CCC[C@H]21)c1ccccc1 (relative stereo)
67 | 161 to 162 | O=C(O)Cn1ccc(=O)n(Cc2cccc([N+](=O)[O-])c2)c1=O
68 | 139 to 141 | CC(=O)C(C)S(=O)(=O)c1ccc(C=C(C)c2ccc3c(c2)C(C)(C)CCC3(C)C)cc1 (stereo not given)
69 | 98 to 99 | CCOC(=O)C(NC(=O)c1ccc(C)cc1)C(=O)OCC
70 | 223 to 225 | CCCOc1ccc(S(=O)(=O)N2CC[C@@H](N(C)C)C2)cc1-c1nc2cc3ncn(Cc4ccc(F)cc4)c3cc2c(=O)[nH]1
71 | 132 to 133 | Cc1oc(-c2ccccc2)nc1CCOc1ccc(/C=C/C=C/CO)cc1
72 | 149 to 150 | COC(=O)c1ccc2c(c1)Sc1ccccc1NC2
73 | 136 to 138 | NS(=O)(=O)c1cc2cc(CCOCc3ccccc3)ccc2s1
74 | 139 to 141 | CCOC(=O)C1=C(C)NC(C#N)=C(C(=O)OCC)C1c1ccco1 (stereo not given)
75 | 84.5 to 85.5 | COC(=O)COc1cccc2c(CNS(=O)(=O)CCCCCc3ccccc3)coc12
76 | 165 to 170 | CN(C)c1ccc(S(=O)(=O)N2CCCCC2=O)cc1
77 | 94 to 95 | O=C(Nc1ccc(C(=O)N2Cc3ccccc3-c3ccccc32)cc1)c1ccc(Cl)c(Cl)c1
78 | 69 to 70 | COc1ccc2oc(C(O)Cc3ccccc3)cc2c1 (stereo not given)
79 | 193 | NS(=O)(=O)c1ccc(-n2nc(C(F)(F)F)cc2-c2ccc(-c3ccco3)cc2)cc1Cl
80 | 101 | COC(=O)C1(C(F)F)c2ccccc2Oc2ccccc21
81 | 128 to 129 | COC(=O)NC(Cc1c[nH]c2ccccc12)C(=O)OCc1cc(C)cc(C)c1 (stereo not given)
82 | 68 to 74 | COC(=O)c1c(F)cc(OCCNC(=O)C2Cc3ccccc3N2S(=O)(=O)c2ccc(-c3ccc(F)cc3Cl)cc2)cc1F (stereo not given)

Row | melting point [°C] | SMILES
83 | 129 to 132 | COc1ccc(/C=C(/C(=O)OC(C)(C)C)C(=O)c2ccccc2O)cc1
84 | 156 | C#CCC(CC#C)(C(=O)O)S(=O)(=O)c1ccc(OC)cc1
85 | 94 to 111 | O=C(O)CC(c1ccc(OCc2ccc3ccccc3n2)cc1)c1ccc(OCc2ccc3ccccc3n2)cc1
86 | 68 | O=C(Cc1ccccc1Nc1c(Cl)cccc1Cl)OCCOCCOCCO[N+](=O)[O-]
87 | 138 to 140 | O=CN(O)C(Cc1cccc(CC(=O)O)c1)CS(=O)(=O)c1ccc(Oc2ccc(OC(F)(F)F)cc2)cc1 (stereo not given)
88 | 210 | N#Cc1ccc(-c2ccc(O)cn2)cc1
89 | 75 to 78 | COc1ccc(C(=O)C(NCCc2ccc(OC)c(OC)c2Cl)SC)cc1 (stereo not given)
90 | 77 to 78 | CS(=O)(=O)N(CCc1ccc(Cl)cc1)Cc1cccnc1
91 | 45 to 47 | CC(=O)OC/C(=C(\C(=O)N(C)CC(C)(C)S)c1ccc(F)cc1)c1ccc(S(C)(=O)=O)cc1
92 | 51 to 52 | COC(=O)CCc1ccc(OCCN(C)c2nc3ccccc3o2)cc1
93 | 193 to 199 | COc1ccc(S(=O)(=O)Nc2ccc(C)cc2)c2c3ccccc3n(C=O)c12
94 | 125 to 127 | CCCOc1ccc2c(c1)[C@@H](c1ccc(OC)cc1OCCO)[C@H](C(=O)O)[C@H]2c1ccc2c(c1)OCO2
95 | 196 | NC(=O)c1ccc(CCN2CCC(=C3c4ccsc4CCn4ccnc43)CC2)cc1
96 | 147 to 149 | Cc1ccc(S(=O)(=O)N2CC3=CC(=O)CC3C2)cc1 (stereo not given)
97 | 304 to 306 | O=C(O)c1ccc2c(c1)S(=O)(=O)c1ccccc1NC2
98 | 196 to 198 | O=C1c2ccccc2C(c2ccc(Cl)cc2)(c2c(O)cc(O)cc2O)N1Cc1ccc([N+](=O)[O-])cc1 (stereo not given)
99 | 211 to 213 | O=C(Nc1ccc(Oc2ccccc2)cc1)Nc1ccc(C(F)(F)F)cc1
100 | 172 to 175 | O=C(C=Cc1ccc(-c2ccc(O)c(Cl)c2)cc1)NO
